# Laboratory results reported in patent publication US20220160686A1, “MACROCYCLIC AZOLOPYRIDINE DERIVATIVES AS EED AND PRC2 MODULATORS” (Fulcrum Therapeutics, Inc., priority 2019, published 2022).
# Where “and” joins values, the source holds several entries; their conditions need not be identical. Equal entries are not always repeated. Where two headings read alike, the source gives them in different places.
# Experiments:
# [1] = target: EZH2/PRC2 complex (Homo sapiens, UniProt O75530); assay: Histone methyltransferase assay (radioisotope-based HotSpot); assay type: biochemical; conditions: EZH2/PRC2 complex 10 nM, core histone substrate 0.05 mg/ml, 3H-SAM 1 μM; read-out: IC50, inhibitory effects on the HMT enzyme
# Procedure: Effect of compounds of the present disclosure on EZH2/PRC2 complex methyltransferase functional activity was measured using the radioisotope-based HotSpot assay described by Horiuchi, K. Y., et al. Assay Drug Dev Technol. 11(4):227-36 (2013). Briefly, compounds were prepared in a 10-point 3-fold serial dilution in DMSO from a 10 mM stock in ECHO qualified plate using Assist Plus (Integra Biosciences) liquid handler. […] Nanoliter quantities of each compound's concentration series were transferred into the enzyme/substrate mix using (Echo 550, LabCyte Inc. Sunnyvale, Calif.) acoustic dispenser and pre-incubated for 20 min at room temperature. The methylation reaction was initiated by the addition of 1 μl of 5 μM S-Adenosyl-L-[methyl-^3H]methionine (^3H-SAM) and incubated at 30° C. for 1 h. The final concentration of the EZH2/PRC2 complex, core histone substrate and ^3H-SAM were 10 nM, 0.05 mg/ml, and 1 μM respectively. The % activity of test samples were calculated with reference to positive (no compound) and negative (no EZH2/PRC2) controls on the plate using Excel (Microsoft). The resulting values were exported to Prism (GraphPad software) to generate concentration response curves and IC50 values using the four-parameter logistic equation.
# [2] = tested on: human P-glycoprotein HEK cells (HEK-P-gp); assay: H3K27me3 immunocytochemistry assay in P-gp expressing HEK293T cells, with or without elacridar; assay type: cell-based; conditions: Homo sapiens, 4 days compound treatment
# Outline: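 HEK293T stably expressing human ABCB1 (vinblastine-selected), 1000 cells/well, treated with serially diluted compound for 4 days at 37° C, with or without 250 nM elacridar. Fixed cells stained with anti-H3K27me3 plus Alexa 488 secondary and Hoechst; imaged at 10×, nuclei identified by Hoechst.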
# [3] = target: T1, biotinylated AVI-tagged EED (76-441) (Homo sapiens, UniProt O75530); assay: EED binding SPR assay; conditions: 1:1 binding model; read-out: KD, equilibrium dissociation constant as measured by surface plasmon resonance (SPR)
# T1 construct: GST (N, cleaved yes); made in house; host or cells: E. coli BL21(DE3), co-expressed with pGro7
# Procedure: Biotinylated AVI-tagged EED was produced using standard molecular biology techniques. A pGEX plasmid with a GST-preScission-cleavage-site-AVI-EED(76-441) sequence was placed into E. coli BL21(DE3) cells and co-expressed with pGro7. The E. coli were grown in shaker flasks in LB with ampicillin at 37° C. at 110 rpm to an OD600=0.7. At this time the temperature was lowered to 15° C. and IPTG was added to 0.3 mM. The cells were allowed to express overnight. Cells were then harvested.
# For purification, the E. coli cell pellet was lysed into a buffer of 50 mM Tris pH 8.0, 500 mM NaCl, 5% glycerol and 5 mM DTT. The lysate was loaded onto a GSTrap FF column from GE Healthcare. After washing, the bound protein was eluted with 50 mM Tris pH 8.0, 500 mM NaCl, 5% glycerol, 5 mM DTT and 15 mM GSH. The collected fractions were combined and incubated with PreScission enzyme overnight at 4° C. The cleaved protein was then passed through a GSTrap FF column in a buffer of 50 mM Tris pH 8.0, 500 mM NaCl, 5% glycerol and 5 mM DTT. The cleaved protein was confirmed through mass spectrometry. The AVI-EED(76-441) was then buffer exchanged into 50 mM Bicine pH 8.3, 10 mM ATP, 10 mM magnesium acetate and 50 μM D-Biotin. 3 mg of BirA enzyme was added to the system and incubated at 4° C. for 2 hours to biotinylate the AVI-EED(76-441). The biotinylated-AVI-EED(76-441) was then buffer exchanged into 20 mM Tris pH 8.0 and 400 mM NaCl and passed through a size exclusion column of Superdex 200 16/60 Increase. The purified monomeric biotinylated-AVI-EED(76-441) was confirmed through SDS-PAGE, LC-MS and analytical size exclusion chromatography.
# All surface plasmon resonance (SPR) assays were performed using a GE Biacore S200 utilizing GE Biotin CAPture chips. Capturing of CAP reagents was performed with a flow rate of 2 μL/min for 90 seconds. For protein capturing, a solution of 50 μg/mL of biotinylated AVI-tagged EED (76-441) in 10 mM HEPES pH 7.4, 150 mM NaCl, 0.05% Tween 20 and 2% DMSO (Running Buffer) was flowed over the chip with a flow rate of 5 μL/min for a contact time of 30 seconds. Final readings were 2200-2400 RU. For compounds, 7 concentrations were made with 3-dilutions using the Running Buffer for a total of 300 μL of each concentration in a 96-well microplate. During the binding experiments, a flow rate of […] was used for an association time of 90 seconds followed by a disassociation time of 180 seconds. The compartment temperature was set at 10° C. with the chip at 25° C. During regeneration the flow rate was set to 30 μL/min for 30 seconds. All fittings were done using a 1:1 binding model.
# [4] = HEK293, 96 h, without elacridar, read-out: IC50, inhibitory activity on human P-glycoprotein HEK cells (HEK-P-gp)
# [5] = HEK293, with 250 nM elacridar, read-out: IC50, inhibitory activity on human P-glycoprotein HEK cells (HEK-P-gp) pretreated with elacridar
# T1 sequence (O75530 76-441 limits assumed): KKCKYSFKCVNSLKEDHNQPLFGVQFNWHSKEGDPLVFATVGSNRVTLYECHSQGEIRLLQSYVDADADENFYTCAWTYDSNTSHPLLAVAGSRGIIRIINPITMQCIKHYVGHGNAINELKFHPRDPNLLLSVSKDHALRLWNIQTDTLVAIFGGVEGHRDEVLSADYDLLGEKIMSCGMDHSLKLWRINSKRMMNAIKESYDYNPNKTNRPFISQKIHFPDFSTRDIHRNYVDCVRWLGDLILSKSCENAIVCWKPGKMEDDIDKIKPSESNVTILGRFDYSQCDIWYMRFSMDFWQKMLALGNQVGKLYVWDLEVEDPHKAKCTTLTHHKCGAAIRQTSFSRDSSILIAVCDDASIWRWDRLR
# Sequence of EZH2/PRC2 complex (O75530 whole entry): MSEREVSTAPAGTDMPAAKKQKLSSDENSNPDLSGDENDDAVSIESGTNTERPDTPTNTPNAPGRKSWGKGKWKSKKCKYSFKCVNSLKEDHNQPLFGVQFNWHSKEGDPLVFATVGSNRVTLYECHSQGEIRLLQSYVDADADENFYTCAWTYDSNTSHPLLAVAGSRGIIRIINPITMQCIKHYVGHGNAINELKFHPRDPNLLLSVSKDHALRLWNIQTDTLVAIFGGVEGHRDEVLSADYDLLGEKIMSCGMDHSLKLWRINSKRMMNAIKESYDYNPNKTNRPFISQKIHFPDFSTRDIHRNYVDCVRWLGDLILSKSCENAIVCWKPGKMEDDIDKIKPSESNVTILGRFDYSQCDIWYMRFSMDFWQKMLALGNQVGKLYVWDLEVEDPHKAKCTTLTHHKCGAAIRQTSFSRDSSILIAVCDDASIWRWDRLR
# Sequence of EZH2/PRC2 complex (Q15910 whole entry partner): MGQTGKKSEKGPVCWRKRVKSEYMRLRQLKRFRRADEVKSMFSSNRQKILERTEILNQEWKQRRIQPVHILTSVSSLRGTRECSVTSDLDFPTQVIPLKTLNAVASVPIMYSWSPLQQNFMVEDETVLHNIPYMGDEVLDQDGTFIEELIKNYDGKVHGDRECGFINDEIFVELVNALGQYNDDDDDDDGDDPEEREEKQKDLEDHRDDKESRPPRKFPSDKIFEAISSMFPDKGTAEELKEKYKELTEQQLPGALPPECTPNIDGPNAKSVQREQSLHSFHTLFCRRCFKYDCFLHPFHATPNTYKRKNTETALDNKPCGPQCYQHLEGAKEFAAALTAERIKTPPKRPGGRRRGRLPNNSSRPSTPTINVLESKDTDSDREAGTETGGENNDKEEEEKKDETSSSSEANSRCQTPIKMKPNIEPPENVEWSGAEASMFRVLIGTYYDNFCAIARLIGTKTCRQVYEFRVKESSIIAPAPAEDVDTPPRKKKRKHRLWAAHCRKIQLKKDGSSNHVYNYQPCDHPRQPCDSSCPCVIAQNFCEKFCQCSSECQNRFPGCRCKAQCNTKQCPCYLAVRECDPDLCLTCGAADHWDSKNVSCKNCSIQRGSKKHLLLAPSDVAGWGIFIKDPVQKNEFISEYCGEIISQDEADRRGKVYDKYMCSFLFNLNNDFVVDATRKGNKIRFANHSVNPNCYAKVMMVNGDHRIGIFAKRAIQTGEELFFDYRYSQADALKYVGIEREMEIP
# Sequence of EZH2/PRC2 complex (Q15022 whole entry partner): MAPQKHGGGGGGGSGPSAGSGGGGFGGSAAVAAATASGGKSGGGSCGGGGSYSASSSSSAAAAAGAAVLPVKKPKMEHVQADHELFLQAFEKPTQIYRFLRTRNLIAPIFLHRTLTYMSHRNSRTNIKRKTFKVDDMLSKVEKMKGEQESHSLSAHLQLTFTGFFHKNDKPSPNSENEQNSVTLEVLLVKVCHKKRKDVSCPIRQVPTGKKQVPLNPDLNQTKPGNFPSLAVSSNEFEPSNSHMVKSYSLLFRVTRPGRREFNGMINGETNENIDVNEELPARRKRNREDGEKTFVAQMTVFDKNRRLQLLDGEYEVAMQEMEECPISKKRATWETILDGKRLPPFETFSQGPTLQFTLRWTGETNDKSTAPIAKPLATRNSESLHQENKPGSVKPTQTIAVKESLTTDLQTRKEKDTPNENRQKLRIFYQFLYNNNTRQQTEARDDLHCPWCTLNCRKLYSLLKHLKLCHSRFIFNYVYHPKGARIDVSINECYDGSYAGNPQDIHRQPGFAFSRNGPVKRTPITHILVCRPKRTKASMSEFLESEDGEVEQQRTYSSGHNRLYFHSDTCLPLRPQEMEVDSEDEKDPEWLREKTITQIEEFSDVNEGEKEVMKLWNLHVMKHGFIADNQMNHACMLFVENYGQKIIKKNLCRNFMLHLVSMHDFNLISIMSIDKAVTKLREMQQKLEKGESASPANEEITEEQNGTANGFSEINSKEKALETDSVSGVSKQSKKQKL
SMILES,IC50 [1],"IC50 [2, 4]","IC50 [2, 5]",Kd [3]
"Cc1ncccc1-c1cc2c(n3cnnc13)NCc1c(F)ccc3c1[C@H](CO3)CO2 [Compound 185, (R)-12-fluoro-4-(2-methylpyridin-3-yl)-7a,8,13,14-tetrahydro-7H-[1,2,4]triazolo[4′,3′:1,6]pyrido[3,2-b]benzofuro[4,3-fg][1,4]oxazonine]",> 500 nM,> 500 nM,> 500 nM,–
"Cn1nc(O)cc1-c1cc2c(n3cnnc13)NCc1c(F)ccc3c1C(CO3)CO2 [Compound 197, (S)-5-(12-fluoro-7a,8,13,14-tetrahydro-7H-[1,2,4]triazolo[4′,3′:1,6]pyrido[3,2-b]benzofuro[4,3-fg][1,4]oxazonin-4-yl)-1-methyl-1H-pyrazol-3-ol]",–,< 25 nM,50 to 100 nM,10 to 50 nM and < 2.5 nM
"CC(=O)N1CCC(c2cc3c(n4cnnc24)NCc2c(F)cccc2COC3)CC1 [Compound 198, 1-(4-(12-fluoro-6,8,13,14-tetrahydro-[1,2,4]triazolo[4′,3′:1,6]pyrido[3,2-c]benzo[g][1,5]oxazonin-4-yl)piperidin-1-yl)ethan-1-one]",> 500 nM,–,–,–
COc1nc(C)ccc1-c1cc2c(n3cnnc13)NCc1c(F)ccc3c1[C@H](CO3)CO2 [Example 105],–,100 to 500 nM,100 to 500 nM,5 to 10 nM
COc1ccc(-c2cc3c(n4cnnc24)NCc2c(F)ccc4c2[C@H](CO4)CO3)c(C)n1 [Example 106],–,50 to 100 nM,25 to 50 nM,< 2.5 nM
CN(C)c1ncc(-c2cc3c(n4cnnc24)NCc2c(F)ccc4c2[C@H](CO4)CO3)cn1 [Example 108],–,> 500 nM,> 500 nM,< 2.5 nM
CCOc1ncc(-c2cc3c(n4cnnc24)NCc2c(F)ccc4c2[C@H](CO4)CO3)cn1 [Example 109],–,100 to 500 nM,100 to 500 nM,< 2.5 nM
COc1ncc(F)cc1-c1cc2c(n3cnnc13)NCc1c(F)ccc3c1[C@H](CO3)CO2 [Example 111],–,100 to 500 nM,100 to 500 nM,2.5 to 5 nM
Fc1ccc2c3c1CNc1c(cc(-c4ccc(C(F)(F)F)nc4)c4nncn14)OC[C@H]3CO2 [Example 112],–,100 to 500 nM,100 to 500 nM,2.5 to 5 nM
Fc1ccc2c3c1CNc1c(cc(-c4ccc(C(F)(F)F)cn4)c4nncn14)OCC3CO2 (stereo not shown) [Example 113],–,> 500 nM,> 500 nM,10 to 50 nM
Fc1ccc2c3c1CNc1c(cc(-c4cnc(C(F)(F)F)nc4)c4nncn14)OC[C@H]3CO2 [Example 114],–,100 to 500 nM,100 to 500 nM,< 2.5 nM
Fc1ccc2c3c1CNc1c(cc(-c4ccc(N5CCOCC5)nc4)c4nncn14)OC[C@H]3CO2 [Example 116],–,> 500 nM,100 to 500 nM,< 2.5 nM
CN1CCN(c2ccc(-c3cc4c(n5cnnc35)NCc3c(F)ccc5c3[C@H](CO5)CO4)cn2)CC1 [Example 117],–,100 to 500 nM,50 to 100 nM,< 2.5 nM
CN1CCN(c2ncc(-c3cc4c(n5cnnc35)NCc3c(F)ccc5c3[C@H](CO5)CO4)cn2)CC1 [Example 118],–,100 to 500 nM,50 to 100 nM,< 2.5 nM
Cc1cc(-c2cc3c(n4cnnc24)NCc2c(F)ccc4c2[C@H](CO4)CO3)cnn1 [Example 123],–,> 500 nM,> 500 nM,< 2.5 nM
